Measured values as given in patent publication US20240131028A1, “CHEMOVACCINATION AGAINST PLASMODIUM INFECTION WITH SELECTIVE PLASMEPSIN X INHIBITORS” (Merck Sharp & Dohme LLC, priority 2021, published 2024).
“Also recorded” adds a separate entry of the source. Where two headings read alike, the source gives them in different places.

What was measured:
[1] = target: PfPMX (recombinant plasmepsin X) (Plasmodium falciparum, UniProt Q8IAS0); experiment: FRET based assay for plasmepsin X cleavage of Rh2 peptide substrate; assay type: biochemical; settings: AVG, N=2, pH 5.5
Procedure: (§1) For cleavage assays, 10-point dilution series of the compounds (Compound EC50 determined by LDH assay) were prepared in 1536 well black low volume assay plates (Corning #3728) using an Acoustic Dispenser Echo555 (Labcyte). Appropriate volumes of 10 mM compound stocks were transferred into the assay plates starting at a top dose of 0.9 μM for PfPMX and 90 μM for PfPMIX in a 1:3 fold dilution series with 1% DMSO final concentration. IC50 values were analysed in Graphpad Prism software using a nonlinear regression four-parameter fit analysis. The equation used was sigmoidal dose response (variable slope), Y=bottom+[…].
(§2) All compound potency assays were conducted in 5 μl total volume. […] Samples were excited at 340 nm and fluorescence emission measured at 490 nm using PHERAstar FSX plate reader (BMG). […]
(§3) For cleavage assays, 10-point dilution series of the compounds, recombinant PMIX or PMX, and FRET peptide substrates were prepared in 1536 well plates. Samples were excited at 340 nm and fluorescence emission measured at 492 nm using an Envision fluorescence plate reader (Perkin-Elmer).
(§4) IC50 values were calculated by Dotmatics 5.3 and Spotfire 7.11.1 software using a nonlinear regression four-parameter fit analysis. […]

[2] = test system: ring stage parasites (Pf); experiment: Parasite lactate dehydrogenase (LDH) growth assay (Parasite Assay, PfLDH Assay); assay type: cell-based, P. falciparum
[3] = target: T1, PfPMIX (recombinant plasmepsin IX) (Plasmodium falciparum, UniProt Q8ILG2); experiment: FRET based assay for plasmepsin IX cleavage of RON3 peptide substrate; assay type: biochemical; settings: AVG, N=2, pH 5.5
T1 sequence (Q8ILG2 1-627): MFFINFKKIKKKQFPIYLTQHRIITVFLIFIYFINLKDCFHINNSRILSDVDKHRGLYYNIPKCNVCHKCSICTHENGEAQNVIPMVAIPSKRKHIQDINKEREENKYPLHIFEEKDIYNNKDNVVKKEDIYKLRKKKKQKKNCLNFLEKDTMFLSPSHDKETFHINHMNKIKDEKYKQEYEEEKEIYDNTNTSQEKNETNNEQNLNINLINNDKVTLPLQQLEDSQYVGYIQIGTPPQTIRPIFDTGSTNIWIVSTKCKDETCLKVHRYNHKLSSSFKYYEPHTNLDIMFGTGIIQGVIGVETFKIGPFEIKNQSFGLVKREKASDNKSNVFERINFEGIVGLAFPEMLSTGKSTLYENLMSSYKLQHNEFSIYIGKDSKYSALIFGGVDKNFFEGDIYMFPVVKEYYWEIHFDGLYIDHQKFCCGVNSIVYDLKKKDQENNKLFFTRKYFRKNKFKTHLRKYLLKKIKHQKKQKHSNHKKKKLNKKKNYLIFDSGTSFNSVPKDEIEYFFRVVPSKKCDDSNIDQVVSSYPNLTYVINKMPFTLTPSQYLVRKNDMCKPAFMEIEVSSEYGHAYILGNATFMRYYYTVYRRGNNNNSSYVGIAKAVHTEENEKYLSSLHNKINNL
Procedure: as §1, §2, §3, §4

[4] = test system: Plasmodium berghei sporozoites (PbmCherryLuci); experiment: Chemovaccination of mice: sporozoite liver infection, oral treatment, mosquito bite challenge; assay type: in vivo, Plasmodium berghei in C57BL/6 mice
Procedure: The indicated number of Plasmodium berghei sporozoites expressing mCherry and luciferase reporters (PbmCherryLuci) were inoculated intravenously, and compounds were administered to mice by oral gavage 36 and 48 hours after injection during liver infection. Plasmodium berghei liver infection levels and egress of parasites from the liver were measured by bioluminescence signal from the parasites using the luciferase reporter and an In Vivo Imaging System (IVIS, Perkin Elmer) at the peak of liver infection (52 hours post infection, hpi), during liver egress (55 hpi) as well as during the first round of blood infection (65 hpi). Initiation of blood infection was also measured by flow cytometry at 65 hpi using the mCherry reporter to determine the parasitemia of this first round of blood infection. These analyses allowed quantification of the efficacy of drug killing of parasites in the liver (52 hpi), preventing their egress from the liver (55 hpi) or preventing their successful infection of the blood (65 hpi). Mice were monitored by giemsa stained thin blood smears for the presence of parasites in the blood for 30 days post infection. If no blood infection was seen during the subsequent 30 days, the mice were declared cured of malaria infection thus indicating the chemoprophylactic activity of these compounds.
The chemoprophylactic activity of administered compounds is not to kill liver Plasmodium berghei parasites nor to prevent their egress from the liver, but rather that liver-derived merozoites were unable to initiate a blood infection in these mice. The parasites are thus attenuated by the administered compounds. Such parasite attenuation by genetic means is a powerful vaccination strategy, and as such cure of liver parasites by the compounds could simultaneously be considered as chemoprophylaxis as well as a chemovaccination strategy. Mice previously cured of liver infection with the administered compounds (Chemovaccinated) were challenged with bites from 10 PbmCherryLuci infected mosquitoes at the indicated times after cure of liver infection with the administered compounds to determine the level of immunity engendered by this chemovaccination approach.
C57BL/6 mice were administered Example 2, as described in the general procedure. Thirty nine mice were infected with 40,000 sporozoites. Twenty-one mice were untreated. Six C57BL/6 mice were administered 2×100 mg/kg of Example 2. Six C57BL/6 mice were administered 2×200 mg/kg. Six C57BL/6 mice were administered 2×500 mg/kg. Example 2 dosed at 2×100 mg/kg cured four of six mice of their infection, as did mice dosed with 2×200 mg/kg of Example 2. […] These infections and treatments can be considered immunizations or chemovaccinations, since the parasite is attenuated by Example 2 and is unable to initiate the blood infection.
Additionally, the eight mice previously chemovaccinated with 2×100 mg/kg and 2×200 mg/kg of Example 2 were challenged three months later with bites from 10 mosquitoes infected with PbmCherryLuci sporozoites.

[5] = eight mice chemovaccinated once with 2×100 or 2×200 mg/kg, challenged three months later, bites from 10 infected mosquitoes
[6] = Table 4, 72 hours growth, LDH readout, read-out: EC50 (Table 4)
[7] = Plasmodium falciparum, 72 h, Table 4, 72 hours growth, LDH readout, read-out: EC50 (Table 4)

PfPMX (recombinant plasmepsin X), sequence (Q8IAS0 222-573): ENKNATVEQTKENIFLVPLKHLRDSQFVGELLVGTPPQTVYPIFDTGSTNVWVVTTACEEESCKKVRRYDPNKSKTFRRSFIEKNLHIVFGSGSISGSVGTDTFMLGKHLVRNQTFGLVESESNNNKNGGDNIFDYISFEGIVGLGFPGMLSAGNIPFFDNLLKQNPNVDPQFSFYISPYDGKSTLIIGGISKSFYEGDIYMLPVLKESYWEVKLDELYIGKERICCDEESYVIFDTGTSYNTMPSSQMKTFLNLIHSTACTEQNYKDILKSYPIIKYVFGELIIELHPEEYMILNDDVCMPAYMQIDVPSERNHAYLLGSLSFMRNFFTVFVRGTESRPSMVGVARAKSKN

CCC1(CC)CC(=O)N([C@H](c2cccnc2)[C@H]2C[C@@H]2C(=O)N[C@H]2CC(C)(C)Oc3ccccc32)C(=N)N1 [Example 2, (1S,2S)-2-((S)-(4,4-diethyl-2-imino-6-oxotetrahydropyrimidin-1(2H)-yl)(pyridin-3-yl)methyl)-N—((S)-2,2-dimethylchroman-4-yl)cyclopropanecarboxamide]
Ki [1]: 0.026 nM | EC50 ([2]; Plasmodium falciparum, 72 h, Table 3, 72 hours growth, LDH readout, read-out: EC50): 0.9 nM | EC50 ([2]; Plasmodium falciparum, Table 6, AVG, N=3, read-out: PfLDH Assay (EC50)): 0.86 nM | Ki [3]: 5.95 nM | mice cured of their infection ([4]; 2×100 mg/kg oral gavage 36 and 48 h after 40,000 sporozoites i.v., 30 days monitoring): four of six | mice cured of their infection ([4]; 2×200 mg/kg oral gavage 36 and 48 h after 40,000 sporozoites i.v., 30 days monitoring): four of six | mice cured of their infection (chemoprophylaxis) ([4]; 2×500 mg/kg oral gavage 36 and 48 h after 40,000 sporozoites i.v., 30 days monitoring, FIG. 1): cured all mice of their infection; also recorded: never got malaria | protection from infection upon mosquito bite challenge after two immunizations ([4]; 2×500 mg/kg twice, challenged 3 months later, bites from 10 infected mosquitoes, FIG. 2): completely protected from infection | protection after two immunizations ([4]; 2×500 mg/kg twice, mosquito bite challenge 3 months later, FIG. 2): 100% | development of malaria disease after challenge, one immunization [4, 5]: all mice ultimately developed malaria disease | infection upon mosquito bite challenge after one immunization [4, 5]: showed a reduction in infection upon challenge | cure of second infection (boost immunization) ([4]; six mice, six weeks later 20,000 sporozoites, 2×500 mg/kg): cured them of this second infection

CCC1(CC)CC(=O)N([C@H](CCOC)[C@H]2C[C@@H]2C(=O)NC2CC(C)(C)Oc3c(Cl)cccc32)C(=N)N1 (stereo partly shown) [Example 148B]
EC50 [2, 6]: 1.9 nM

CCC1(CC)CC(=O)N([C@H](CCOC)[C@H]2C[C@@H]2C(=O)NC2CC(C)(C)Oc3cccc(Cl)c32)C(=N)N1 (stereo partly shown) [Example 149A]
EC50 [2, 7]: 1 nM

CCC1(CC)CC(=O)N([C@H](CCOC)[C@H]2C[C@@H]2C(=O)NC2CC(C)(C)Oc3cccc(Cl)c32)C(=N)N1 (stereo partly shown) [Example 149B]
EC50 [2, 6]: 1.2 nM

CCC1(CC)CC(=O)N([C@H](CCOC)[C@H]2C[C@@H]2C(=O)NC2c3cc(Cl)ccc3OC(C)(C)[C@H]2O)C(=N)N1 (stereo partly shown) [Example 150]
EC50 [2, 7]: 3.9 nM
